Laboratory results published in ChEMBL document CHEMBL3397005, “Synthesis and antiproliferative activity of novel polynuclear heterocyclic compounds derived from 2,3-diaminophenazine” (Eur J Med Chem, 2015).
Values after ≈ are worked out from the molar mass of the structure shown. Blank lines part the entries; values can stand above or below the compound they belong to. Active and inactive are the calls of the source. The rule behind the calls is not given here.

Tests used:
A549 [1] = test: Antiproliferative activity against human A549 cells; type: functional, cell-based
HCT-116 [2] = test: (§1) Antiproliferative activity against human HCT116 cells; type: functional, cell-based
[3] = as §1; type: functional, cell-based; conditions: HCT-116
A549 [4] = test: Inhibition of tyrosine kinase in human A549 cells at IC50 after 24 hrs by ELISA relative to control; type: cell-based
HCT-116 [5] = test: Inhibition of tyrosine kinase in human HCT116 cells at IC50 after 24 hrs by ELISA relative to control; type: cell-based

SMILES: O=c1[nH]c2cc3nc4ccccc4nc3cc2[nH]c1=O
Activity (A549 [1]): inactive
Activity (HCT-116 [2]): inactive

SMILES: CC1(C)CC(=O)C(/N=N/c2cc3nc4ccccc4nc3cc2N)C(=O)C1
IC50 (A549 [1]): 22.3 mg/L (≈ 61.7 µM)
IC50 [3]: 13.9 mg/L (≈ 38.5 µM)
inhibition (A549 [4]): 2%
inhibition (HCT-116 [5]): 0.6%

SMILES: O=C1CC(=O)Nc2cc3nc4ccccc4nc3cc2N1
Activity (A549 [1]): inactive
Activity (HCT-116 [2]): inactive

SMILES: Nc1cc2nc3ccccc3nc2cc1N
IC50 (A549 [1]): 8.8 mg/L (≈ 41.9 µM)
IC50 [3]: 6 mg/L (≈ 28.5 µM)
inhibition (A549 [4]): 80%
inhibition (HCT-116 [5]): 72%

SMILES: c1ccc2nc3c(nc2c1)Nc1cc2nc4ccccc4nc2cc1N3
Activity (A549 [1]): inactive
Activity (HCT-116 [2]): inactive

SMILES: c1ccc(-c2nc3cc4nc5ccccc5nc4cc3[nH]2)cc1
Activity (A549 [1]): inactive
Activity (HCT-116 [2]): inactive

SMILES: C(=C\c1nc2cc3nc4ccccc4nc3cc2[nH]1)/c1ccccc1
Activity (A549 [1]): inactive
Activity (HCT-116 [2]): inactive

SMILES: O=c1[nH]c2cc3nc4ccccc4nc3cc2[nH]/c1=N/Nc1ccccc1
Activity (A549 [1]): inactive
Activity (HCT-116 [2]): inactive

SMILES: CC1CC(=O)Nc2cc3nc4ccccc4nc3cc2N1 (stereo unspecified)
Activity (A549 [1]): inactive
Activity (HCT-116 [2]): inactive

SMILES: CCOC(=O)/C(=N/Nc1ccccc1)Nc1cc2nc3ccccc3nc2cc1N
Activity (A549 [1]): inactive
Activity (HCT-116 [2]): inactive

More lines, main results first:

IC50 (A549 [1]): 23.6 mg/L (≈ 56.4 µM)
SMILES: O=C(Nc1cc2nc3ccccc3nc2cc1NC(=O)c1ccccc1)c1ccccc1
IC50 [3]: 17.5 mg/L (≈ 41.8 µM)
inhibition (A549 [4]): 1%
inhibition (HCT-116 [5]): 0.5%

IC50 (A549 [1]): 7.7 mg/L (≈ 30.5 µM)
SMILES: S=c1[nH]c2cc3nc4ccccc4nc3cc2[nH]1
IC50 [3]: 4.4 mg/L (≈ 17.4 µM)
inhibition (A549 [4]): 86%
inhibition (HCT-116 [5]): 85%

IC50 (A549 [1]): 22 mg/L (≈ 55.6 µM)
SMILES: CC1=NN(c2ccccc2)C(=O)C1/N=N/c1cc2nc3ccccc3nc2cc1N (stereo unspecified)
IC50 [3]: 11.9 mg/L (≈ 30.1 µM)
inhibition (A549 [4]): 4%
inhibition (HCT-116 [5]): 2%

IC50 (A549 [1]): 9.8 mg/L (≈ 25.6 µM)
SMILES: Nc1cc2nc3ccccc3nc2cc1/N=N/C1C(=O)ON=C1c1ccccc1 (stereo unspecified)
IC50 [3]: 6.8 mg/L (≈ 17.8 µM)
inhibition (A549 [4]): 72%
inhibition (HCT-116 [5]): 68%

IC50 (A549 [1]): 19 mg/L (≈ 45 µM)
SMILES: CCOC(=O)c1nn(-c2ccc(C)cc2)c2nc3cc4nc5ccccc5nc4cc3n12
IC50 [3]: 9.6 mg/L (≈ 22.7 µM)
inhibition (A549 [4]): 14%
inhibition (HCT-116 [5]): 18%

IC50 (A549 [1]): 21 mg/L (≈ 51.4 µM)
SMILES: CCOC(=O)c1nn(-c2ccccc2)c2nc3cc4nc5ccccc5nc4cc3n12
IC50 [3]: 11.2 mg/L (≈ 27.4 µM)
inhibition (A549 [4]): 11%
inhibition (HCT-116 [5]): 4%

IC50 (A549 [1]): 21.7 mg/L (≈ 98.5 µM)
SMILES: c1ccc2nc3cc4[nH]cnc4cc3nc2c1
IC50 [3]: 11.4 mg/L (≈ 51.8 µM)
inhibition (A549 [4]): 5%
inhibition (HCT-116 [5]): 3%

IC50 (A549 [1]): 17.6 mg/L (≈ 39.7 µM)
SMILES: CCOC(=O)c1nn(-c2ccc(Cl)cc2)c2nc3cc4nc5ccccc5nc4cc3n12
IC50 [3]: 8.75 mg/L (≈ 19.8 µM)
inhibition (A549 [4]): 50%
inhibition (HCT-116 [5]): 37%

IC50 (A549 [1]): 8.4 mg/L (≈ 32 µM)
SMILES: CCCc1nc2cc3nc4ccccc4nc3cc2[nH]1
IC50 [3]: 6.5 mg/L (≈ 24.8 µM)
inhibition (A549 [4]): 70%
inhibition (HCT-116 [5]): 64%

IC50 (A549 [1]): 11.5 mg/L (≈ 31.5 µM)
SMILES: Clc1ccc(-c2nc3cc4nc5ccccc5nc4cc3[nH]2)c(Cl)c1
IC50 [3]: 6.8 mg/L (≈ 18.6 µM)
inhibition (A549 [4]): 16%
inhibition (HCT-116 [5]): 12%

IC50 (A549 [1]): 8.4 mg/L (≈ 31.5 µM)
SMILES: CSc1nc2cc3nc4ccccc4nc3cc2[nH]1
IC50 [3]: 5.2 mg/L (≈ 19.5 µM)
inhibition (A549 [4]): 85%
inhibition (HCT-116 [5]): 84%

IC50 (A549 [1]): 27.6 mg/L (≈ 90.7 µM)
SMILES: O=c1oc(=O)c2[nH]c3cc4nc5ccccc5nc4cc3[nH]c1=2
IC50 [3]: 14.6 mg/L (≈ 48 µM)
inhibition (A549 [4]): 2%
inhibition (HCT-116 [5]): 0.4%

IC50 (A549 [1]): 13.8 mg/L (≈ 41.7 µM)
SMILES: Clc1cccc(-c2nc3cc4nc5ccccc5nc4cc3[nH]2)c1
IC50 [3]: 7.9 mg/L (≈ 23.9 µM)
inhibition (A549 [4]): 15%
inhibition (HCT-116 [5]): 17%
